Measured values as given in patent publication US20250049927A1, “MODIFIED OLIGONUCLEOTIDE-DRUG CONJUGATE AND USE THEREOF” (INTEROLIGO CORPORATION., priority 2021, published 2025).
Non-standard residues stand in square brackets, D forms with d. Residues, ends and D or L forms follow the SMILES beside them. *: point of attachment. Dolaproine = CO[C@@H]([C@@H]1CCCN1)[C@@H](C)C(=O)O; Dil = CC[C@H](C)[C@H](NC)[C@@H](CC(=O)O)OC; X1 = C[C@@H](N*)[C@@H](O)c1ccccc1; NMeV = CN[C@H](C(=O)O)C(C)C

Key:
[1] = Pharmacokinetic evaluation in rats: plasma MMAE by LC-MS/MS; type: in vivo, Sprague-Dawley male rats; settings: rat, MMAE 4 mg/kg alone intravenous
Description: After pretreating samples by protein precipitation, plasma concentration of MMAE was analyzed using liquid chromatography-tandem mass spectrometry (hereinafter referred to as LC-MS/MS) established in the Pharmacology/Pharmacokinetics Laboratory of the Catholic University College of Pharmacy. All analysis processes were conducted under light-shielding conditions.
[…] standard products were dissolved in acetonitrile to prepare a 1 mg/mL of storage solution and store it frozen.

[2] = system: Sprague-Dawley male rats; experiment: Death of rats after intravenous administration in the pharmacokinetic study; type: in vivo; settings: MMAE 4 mg/kg intravenous
Description: Specifically, Sprague-Dawley male rats (8 weeks old, purchased from Youngbio) were acclimatized for 1 week in the animal room of the Catholic University Songsim Campus, and then pharmacokinetic experiments were performed. Rats were induced with isoflurane, an inhalation anesthetic, and PE50 (polyethylene tubing, Clay Adams, Becton Dickinson, NJ, USA) was inserted into the carotid (for blood collection) and jugular vein (for drug administration), followed by suturing with suture, and then end portions thereof were fixed to the back of the neck. During the surgery, anesthesia was maintained using ether, and about 0.5 mL of physiological saline solution containing heparin (20 units/mL) was injected to prevent blood from coagulating in the cannula. After completing the surgery, each rat was placed in a metabolic cage and allowed to fully recover from the anesthetic (for 4-5 hours). […] All of Example 9, MMAE and gemcitabine were dissolved in physiological saline at 2 mL per kg of body weight and administered into the jugular vein at doses of 40 mg/kg, 4 mg/kg and 2 mg/kg, respectively. […]

[3] = system: BxPC-3 pancreatic cancer cell lines; experiment: Pancreatic cancer cell growth inhibition, WST assay; type: cell-based; settings: BxPC-3, 72 hours treatment, absorbance 450 nm
Description: The in vitro anticancer efficacy of the modified oligonucleotide-drug conjugates was verified using pancreatic cancer cell lines. Pancreatic cancer cell lines (BxPC-3) were treated with the above-described examples and comparative examples at concentrations of 0, 0.01, 0.1, 1, 10, 100, 500 and 1000 μM, and the specific IC50 measurement method and measurement results are as follows.
All cell lines were cultured in a 5% CO2 incubator at 37° C. The BxPC-3 pancreatic cancer cell lines were cultured using a medium containing 10% FBS and 1% antibiotics put into ATCC modified RPMI-1640 (Thermo Scientific, USA). The medium was replaced once every 2-3 days, and passage-cultured at a time when about 70-90% of a culture dish was filled with the cells. First, the cells were washed with PBS, then 0.05% Trypsin-EDTA was added and cultured at 37° C. for 2 minutes, and then a new medium was added to inactivate trypsin. The cells were separated from trypsin and medium using a centrifuge, then another new medium was added and passaged at a ratio of 1:4, followed by culturing the same. All cells were periodically checked for contamination by mycoplasma using a kit (Intron, Korea), and in vitro efficacy evaluation experiments were conducted using only cells in which contamination was not detected.
Using WST reagent (Dongin LS, Korea), an inhibitory effect on pancreatic cancer cell growth by drug treatment was confirmed and IC50 was measured. An orange coloring substance called formazan is produced in WST by mitochondrial dehydrogenase within cells, which is effective only in living cells. The specific test method is as follows.
The cells cultured by the above-described method were dispensed by 2×10^4 into each well of a 96-well culture vessel and cultured for 24 hours. The medium of the cells attached to the culture vessel was replaced with an ATCC modified RPMI-1640 medium containing 5% FBS, and samples of the above-described modified oligonucleotide-drug conjugates (Examples 1-7 and 9-12, and Comparative Example 1-7, respectively) were treated at concentrations of 0, 0.01, 0.1, 1, 10, 100, 500 and 1000 μM. After 72 hours, 10 μl of WST reagent was added to each well and reacted for 2 hours. The produced formazan was measured with an absorbance at 450 nm using a Glomax plate meter (Promega, USA), and IC50 was evaluated according to the protocol in the device. IC50 evaluation results and graphs illustrating the same are shown in Table 2 below and FIGS. 19 to 27 (in Table 2, M=Gemcitabine, and N=5-FdU).

[4] = system: BxPC-3-Luc orthotopic pancreatic cancer; experiment: Orthotopic pancreatic cancer animal model, patch-type collagen drug delivery system inserted at tumor site; type: in vivo, BALB/c-nude male mice; settings: 2.0 mg-loading collagen patch; for IVIS whole body image: change in luminescence / dead mice: inserted once; for IVIS whole body image: change in luminescence: 4 weeks; for dead mice: 28 days
From the text: To deliver the modified oligonucleotide-drug conjugates to an animal model, high-purity collagen (COLTRIX® Tendoregen, Ubiosis Co., Ltd.) dispersion (1.0%) and samples (e.g., modified oligonucleotide-drug conjugates, gemcitabine, etc.) to be tested were mixed, poured into a circular silicone mold having a diameter of 1 cm, and lyophilized to prepare a “patch-type collagen drug delivery system” in which the samples were loaded in the collagen. Amounts of the samples loaded per patch-type collagen drug delivery system are as shown in Table 3 below (in Table 3, SEQ ID NO: 16 is 5′-(Gem)(Gem)[TGG]4[TTG][TGG]5-3′, wherein Gem-Gemcitabine).
Specifically, each of sample (gemcitabine, IO101L (SEQ ID NO: 16) and modified oligonucleotide-drug conjugates (Example 5 and Example 9) to be tested was added to the high-purity collagen, and then uniformly mixed using a multi-mixer (SLRM-3, MYLAB) at 4° C. for 1 hour. Thereafter, a predetermined amount of the collagen-drug mixture was dispensed into a cylindrical silicone mold having a diameter of 1 cm and the collagen-drug mixture was primary frozen at −20° C. for 4 hours or more. After the first freezing was completed, the sample was separated from the cylindrical silicone mold and transferred to a sterile dish or plate, and then secondary frozen at −80° C. for 2 hours or more. After preliminary freezing so that the cold trap temperature of a lyophilizer was-80° C., the mixture was placed in the lyophilizer and lyophilized for more than 16 hours. The lyophilized mixture was compressed in the form of a patch using an acrylic plate, then was put into an aluminum pouch and sealed. The packaged patch-type collagen drug delivery system was refrigerated at 4° C.
The frozen cancer cell line (BxPC-3-Luc) (Asan Institute for Life Sciences) was thawed, and then cultured in an RPMI1640 medium (Biowest, Cat #. L0498-100) in which 10% fetal bovine serum (Biowest, Cat #. S1480) and 1% antibiotic (Gibco, Cat #. 15240062) were supplied at 37° C. under 5% CO2 condition. The thawed cells were cultured for one week to confirm that there were no problems with the shape, survival rate, and doubling time.
Cancer cells having a cell survival rate of 95% or more were prepared in order to transplant them into mice. The cells were harvested using trypsin, and prepared so as to transplant them into 5×10^5 cells/25 μl/mouse by being turbid in RPMI 1640 media. 6-week old BALB/c-nude male mice stabilized for 1 week (purchased from Jabio, Korea) were subjected to abdominal anesthesia, and the pancreas was taken out by dissecting the abdominal region of each anesthetized mouse and cells of 5×10^5 cells/25 μl were transplanted. After 2 weeks, tumor formation was confirmed through luciferase imaging. […] The patch-type collagen drug delivery system prepared in the above (1) was inserted (intra-abdominal cavity insertion using surgery) into the tumor site of each mouse in the respective groups. All animal experiments included in the present test were performed according to the Institutional Animal Care and Use Committee (IACUC) of the Asan Institute for Life Sciences [2022-14-058].
After inserting the patch-type collagen drug delivery system, changes in the tumor size were observed using IVIS imaging equipment (Xenogen IVIS spectrum system; Caliper Life Science, Inc., Hopkinton, MA) at an interval of 3 times a week for 4 weeks to check the body weight. […]

Molecule | AUC of MMAE up to 120 minutes higher than Example 9 (IO176) 40 mg/kg group [1] | plasma concentration of MMAE at 1 minute after administration [1] [ng/mL] | AUCt of MMAE ([1]; to final quantification time) [µg·min/mL] | AUC0-120 of MMAE ([1]; up to 120 minutes) [µg·min/mL] | death of tested rats [2] | IC50 [3] [nM] | effect of inhibiting tumor (IVIS images, tumor size and weight) [4] | IVIS whole body image: change in luminescence [4] | dead mice [4]
CC[C@H](C)[C@@H]([C@@H](CC(=O)N1CCC[C@H]1[C@H](OC)[C@@H](C)C(=O)N[C@H](C)[C@@H](O)c1ccccc1)OC)N(C)C(=O)[C@@H](NC(=O)[C@@H](NC)C(C)C)C(C)C [MMAE, Monomethyl auristatin E] (H-[NMeV]V[Dil][Dolaproine]-X1) | about 9.70 times | 29640 ± 7190 | 128 ± 16.1 | 71.7 ± 9.61 | all tested 7 rats were died | – | – | – | –
Example 5 (GGTGGTGGTGGNNGNGGTGGTGGTGG; paclitaxel via acrylamide-C6-NH-succinic acid linker on U; modified_base 13 OTHER; deoxyuridine(dU); modified_base 12 OTHER; gemcitabine; modified_base 15 OTHER) | – | – | – | – | – | 100 | excellent effect of inhibiting tumor appeared | changes in the fluorescence were decreased | no dead mouse was observed
IO101L: SEQ ID NO: 16, 5′-(Gem)(Gem)[TGG]4[TTG][TGG]5-3′, Gem=Gemcitabine (DNA NNTGGTGGTGGTGGTTGTGGTGGTGGTGGTGG; two 5' gemcitabine nucleotides; modified_base 1 OTHER; gemcitabine; modified_base 2 OTHER) | – | – | – | – | – | – | – | luminescence was gradually increased over time | there were dead mice
